In brackets after ≈: the same amount, converted by molar mass.

Assay type in all cases: physicochemical
The nature of series [1]: Solubility in PEG400 based vehicles.
A short description of series [2]: Nine months stability study in PEG400 based LSF. Conditions: nine months at 25 and 40° C.
Series [3] in a line: Stability in PEG6000 melt. Conditions: 20% drug load, minimally two months, room temperature. Here is the method: Nine parts of PEG6000 were melted in an aluminium cup (70° to 90° C.). One part of (2R)-2-(4-fluorophenyl)-N-[4-(2-{[2-methoxy-4-(methylsulfonyl)phenyl]-amino}[1,2,4]triazolo[1,5-a]pyridin-6-yl)phenyl]propanamide was added to the PEG 6000 melt. The mixture was stirred with a glass stick at approximately 90° C. After complete dissolution of (2R)-2-(4-fluorophenyl)-N-[4-(2-{[2-methoxy-4-(methylsulfonyl)phenyl]amino}[1,2,4]triazolo[1,5-a]pyridin-6-yl)phenyl]propanamide, the melt was cooled down by embedding the cup in a ice-water/NaCl mixture for several minutes. The solidified melt was pestled. (2R)-2-(4-fluorophenyl)-N-[4-(2-{[2-methoxy-4-(methylsulfonyl)phenyl]-amino}[1,2,4]triazolo[1,5-a]pyridin-6-yl)phenyl]propanamide is stable in PEG6000 melt with 20% drug load for minimally two months at room temperature.

In the case of `COc1cc(S(C)(=O)=O)ccc1Nc1nc2ccc(-c3ccc(NC(=O)[C@H](C)c4ccc(F)cc4)cc3)cn2n1` [compound A, (2R)-2-(4-fluorophenyl)-N-[4-(2-{[2-methoxy-4-(methylsulfonyl)phenyl]-amino}[1,2,4]triazolo[1,5-a]pyridin-6-yl)phenyl]propanamide], the solubility in series [1] (aqueous with cosolvent or surfactant or cyclodextrin, in PEG400/PVP/water 8:1:1) is approximately 25 mg/mL (≈ 44.7 mM); in series [1] (organic solvent or mixture, in PEG400/PVP 8:2), approximately 25 mg/mL (≈ 44.7 mM); in series [1] (organic solvent or mixture, in PEG400 based LSF (PEG400/Tween 80/L-Menthol 97:2, 5:0, 5)) it was approximately 25 mg/mL (≈ 44.7 mM). Besides, the “stability in PEG400 based LSF” value in series [2] is given as “no significant time dependant instability”. Further, the “stability in PEG6000 melt” value in series [3] is given as “stable”.

(Values after patent US20160120854A1, “PHARMACEUTICAL COMPOSITIONS” (BAYER PHARMA AKTIENGESELl SCHAFT, priority 2013, published 2016).)
